Where two headings read alike, the source gives them in different places. No end group written: not given here.
Tests used:
HLA-A*0201 (HLA-A2.1) = HLA-A*0201 (HLA-A2.1) (Homo sapiens, UniProt P04439, D140Y/D185E/D98H/E176V/E277Q/G131W/G231S/I119V/I121R/I166T/I218V/L300P/L318F/N151K/N90K/P208A/P217A/Q86G/Q94H/R138H/R169H/T345S); assay: biochemical; assay type: binding
HLA-A24 = assay type: binding, human
HLA-A1 (A*0101) = HLA-A1 (A*0101) (Homo sapiens, UniProt P04439, A114D/A174V/A182V/D101N/D185E/E176A/E190D/L180R/Q94H/R68K/S129P/T187R/V100A/V91M/W191G); assay: biochemical; assay type: binding
A*2902 [1] = target: T1, A*2902 (Homo sapiens, UniProt P04439, A270S/D101N/D185E/E176V/E277Q/E87Q/F33T/G231S/H175R/I121M/I218V/I322F/K168Q/L300P/L318F/M331R/P208A/P217A/Q86L/T323A/T345S/V100A/V358M); assay: biochemical; assay type: binding
A*3002 [2] = target: T2, A*3002 (Homo sapiens, UniProt P04439, D101N/D140H/D185E/E176R/F33S/G80R/H175R/K168Q/Q94H/R138E/R41S/V100E); assay: biochemical; assay type: binding
T2 sequence (P04439 whole entry, looked up, the tested form may be a part, stated change not applied): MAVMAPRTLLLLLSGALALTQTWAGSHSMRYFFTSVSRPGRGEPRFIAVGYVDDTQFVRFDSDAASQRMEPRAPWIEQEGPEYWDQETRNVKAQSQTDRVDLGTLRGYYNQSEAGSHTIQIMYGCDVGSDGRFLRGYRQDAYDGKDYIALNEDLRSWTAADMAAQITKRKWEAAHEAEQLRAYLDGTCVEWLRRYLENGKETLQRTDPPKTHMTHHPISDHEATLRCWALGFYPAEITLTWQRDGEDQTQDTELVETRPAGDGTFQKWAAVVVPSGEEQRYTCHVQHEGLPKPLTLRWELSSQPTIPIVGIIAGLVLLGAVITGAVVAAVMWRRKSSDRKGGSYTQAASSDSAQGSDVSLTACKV

HLA-A3.2 (A*0301) = HLA-A3.2 (A*0301) (Homo sapiens, UniProt P04439); assay: biochemical; assay type: binding
HLA-A11 (A*1101) = HLA-A11 (A*1101) (Homo sapiens, UniProt P04439, A114D/D185E/E176A/F33Y/L180Q/S129P/T187R); assay: biochemical; assay type: binding
A31 (A*3101) = A31 (A*3101) (Homo sapiens, UniProt P04439, A270S/D185E/E176V/E277Q/F33T/G231S/G80R/H175R/I121M/I218V/I322F/K168Q/L300P/L318F/M331R/P217A/Q94H/R138Q/T323A/T345S/T97I/V358M); assay: biochemical; assay type: binding
A*3301 = A*3301 (Homo sapiens, UniProt P04439, A270S/D185E/E176V/E277Q/E87N/F33T/G231S/H175R/I121M/I218V/I322F/K168Q/K210R/L300P/L318F/M331R/P217A/Q86R/Q94H/R138Q/T323A/T345S/T97I/V358M/Y195H); assay: biochemical; assay type: binding
A*6801 = A*6801 (Homo sapiens, UniProt P04439, A269V/D185E/E176V/E277Q/E87N/F33Y/G231S/I121M/I166T/I218V/L180W/L300P/L318F/N151K/P208A/P217A/Q86R/R169H/T345S); assay: biochemical; assay type: binding
A*2601 = A*2601 (Homo sapiens, UniProt P04439, A114D/A173T/A270S/D101N/D185E/E277Q/E87N/F33Y/G231S/I121R/I218V/K168Q/L180W/L300P/L318F/P208A/P217A/Q86R/Q94H/R138Q/S129P/T187R/T323A/T345S/V100A/V358M); assay: biochemical; assay type: binding
A*2902 [3] = target: T1, A*2902; assay: biochemical; assay type: binding; remark: listed apart in the source
A*3002 [4] = target: T2, A*3002; assay: biochemical; assay type: binding; remark: listed apart in the source

Substance	IC50 (HLA-A1 (A*0101))	IC50 (A*2902 [1])	IC50 (A*3002 [2])	also measured
AAISRKMVEL				binding to HLA-A2.1 (column 3; no allele head shown for these rows) (HLA-A*0201 (HLA-A2.1)): 0; binding to HLA-A24 (column 6; no allele head shown for these rows) (HLA-A24): 0
AALSRKVAEL				binding to HLA-A24 (column 6; no allele head shown for these rows) (HLA-A24): 0
AATSSSSPL				binding to HLA-A2.1 (column 3; no allele head shown for these rows) (HLA-A*0201 (HLA-A2.1)): 0; binding to HLA-A24 (column 6; no allele head shown for these rows) (HLA-A24): <0.0002
AFTDLTIVY [Peptide 78.0348]	31 nM	36 nM	71 nM	
ALAETSYVK				binding to HLA-A2.1 (column 3; no allele head shown for these rows) (HLA-A*0201 (HLA-A2.1)): 0.0002; binding to HLA-A24 (column 6; no allele head shown for these rows) (HLA-A24): 0
ALGLVCVQAA				binding to HLA-A2.1 (column 3; no allele head shown for these rows) (HLA-A*0201 (HLA-A2.1)): 0.0002; binding to HLA-A24 (column 6; no allele head shown for these rows) (HLA-A24): 0
ATLERTEVY [Peptide 78.0252]	656 nM	557 nM	26 nM	
AYIDNVYKF [Peptide 979-01, reference compound]				apparent % of available receptor (active MHC) (HLA-A24): 8.3%; Kd (HLA-A24; read-out: KD from Scatchard experiments, A24): 136 nM; Kd (HLA-A24; read-out: apparent KD from cold inhibition experiments, A24): 30 nM
EALEAQQEAL				binding to HLA-A2.1 (column 3; no allele head shown for these rows) (HLA-A*0201 (HLA-A2.1)): 0; binding to HLA-A24 (column 6; no allele head shown for these rows) (HLA-A24): 0
EAQQEALGL				binding to HLA-A2.1 (column 3; no allele head shown for these rows) (HLA-A*0201 (HLA-A2.1)): 0; binding to HLA-A24 (column 6; no allele head shown for these rows) (HLA-A24): <0.0002
EIWEELSVMEV				binding to HLA-A2.1 (column 3; no allele head shown for these rows) (HLA-A*0201 (HLA-A2.1)): 0.013; binding to HLA-A24 (column 6; no allele head shown for these rows) (HLA-A24): 0
ELDPVDLLCY [Peptide 78.0017]	26 nM		12700 nM	
ESNSLKCLRY [Peptide 1580.26]	359 nM	7510 nM	604 nM	
EYRHYNYSVY [Peptide 78.0180]	> 20000 nM	16000 nM	253 nM	
EYRHYQYSLY [Peptide 78.0183]	2270 nM	2370 nM	130 nM	
F185.01 (LYSACFWWL) [Peptide F185.01]				IC50 (HLA-A24; read-out: A*2402): 28 nM
FYSKVRKYRY [Peptide 78.0176]	> 20000 nM	146 nM	326 nM	
GNEKTYFKY [Peptide 86.0160]	2300 nM	319 nM	739 nM	
ISEYRHYQY [Peptide 78.0254]	46 nM	853 nM	81 nM	
KAGLLIIVL				binding to HLA-A24 (column 6; no allele head shown for these rows) (HLA-A24): 0
KALKFYSKI [Peptide E6-72]				binding class for HLA-A24 (HLA-A24): high affinity (key: high affinity: >0.1; intermediate affinity: 0.1-0.01; low affinity: 0.01-0.001)
KFYSKISEY [Peptide 78.0363]	> 20000 nM	1590 nM	9.5 nM	
KLNWASQIY [Peptide 1595.09]	11300 nM			IC50 (HLA-A3.2 (A*0301)): 63 nM; IC50 (HLA-A11 (A*1101)): 950 nM; IC50 (A31 (A*3101)): > 20000 nM; IC50 (A*3301): > 20000 nM; IC50 (A*6801): > 20000 nM; IC50 (A*2601): > 20000 nM; IC50 (A*2902 [3]): 108 nM; IC50 (A*3002 [4]): 2.9 nM
KQNPDIVIY [Peptide 1595.10]	> 20000 nM			IC50 (HLA-A3.2 (A*0301)): 3800 nM; IC50 (A31 (A*3101)): 4550 nM; IC50 (A*3301): > 20000 nM; IC50 (A*6801): > 20000 nM; IC50 (A*2601): > 20000 nM; IC50 (A*2902 [3]): > 20000 nM; IC50 (A*3002 [4]): 7.4 nM

Substance	IC50 (HLA-A1 (A*0101))	IC50 (A*2902 [1])	IC50 (A*3002 [2])	also measured
LFTDLRIVY [Peptide 78.0378]		12 nM	89 nM	
LFYSKVRKY [Peptide 78.0384]	> 20000 nM	201 nM	35 nM	
LKEYVLDLY [Peptide 78.0250]	> 20000 nM	3310 nM	76 nM	
LSDISEYRHY [Peptide 1549.45]	27 nM	14500 nM		
LTEITGYLY [Peptide 9012.0126]	16 nM	25 nM	151 nM	
LVFGIELMEV				binding to HLA-A24 (column 6; no allele head shown for these rows) (HLA-A24): 0
LYPEPTDLY [Peptide 78.0354]	> 20000 nM		1470 nM	
MLETLNNTEY [Peptide 1580.24]	36 nM		1120 nM	
NTDILTVTY [Peptide 1593.17]	22 nM		2000 nM	
QAEPDRAHY [Peptide 78.0244]	3270 nM	> 20000 nM	16 nM	
QAEQATSNYY [Peptide 78.0022]		> 20000 nM	1440 nM	
RAHYNIVTF [Peptide E7-49]				binding class for HLA-A24 (HLA-A24): intermediate affinity (key: high affinity: >0.1; intermediate affinity: 0.1-0.01; low affinity: 0.01-0.001)
RFHNIGGRW [Peptide 78.0369]	> 20000 nM	12200 nM	13 nM	
RFHNIMGRW [Peptide 78.0381]	> 20000 nM	> 20000 nM	27 nM	
RFHSIAGQY [Peptide 78.0376]	> 20000 nM		1 nM	
RTDSVILNVLY [Peptide 9012.0162]	14 nM	954 nM	8.5 nM	
VAELVHFLLL				binding to HLA-A24 (column 6; no allele head shown for these rows) (HLA-A24): 0.0018
VTETLEEITGY [Peptide 9012.0178]	20 nM	> 20000 nM	11300 nM	
WKSLVKHHMY [Peptide 9015.0177]	> 20000 nM			IC50 (A*2601): > 20000 nM; IC50 (A*2902 [3]): > 20000 nM; IC50 (A*3002 [4]): 148 nM
YSDREIIY [Peptide 9012.0096]	93 nM	> 20000 nM		
YSKVSEFRWY [Peptide 78.0009]	539 nM	4510 nM		
YSRIRELRY [Peptide 78.0253]	308 nM	6280 nM		
YTDGPGTRY [Peptide 9018.0002]	0.39 nM			IC50 (A*2601): 28 nM; IC50 (A*2902 [3]): 65 nM; IC50 (A*3002 [4]): 63 nM
YTDGPGVRY [Peptide 9018.0003]	2.1 nM			IC50 (A*2601): 152 nM; IC50 (A*2902 [3]): 39 nM; IC50 (A*3002 [4]): 45 nM

From patent publication US9340577B2, “HLA binding motifs and peptides and their uses” (priority 1992, dated 2016)
